Reference: PMC3774728, “Identification of the Plant Compound Geraniin as a Novel Hsp90 Inhibitor” (PLoS ONE, 2013)

Tests used:
recombinant Hsp90α [1] = target: T1, recombinant Hsp90α (Homo sapiens, UniProt P07900); assay: Surface plasmon resonance binding to immobilized Hsp90α; conditions: SPR, immobilized Hsp90α, 25°C, single-site bimolecular model, 0.025-1 µM; read-out: KD
T1 construct: purchased Assay Designs (Ann Arbor, MI, USA)
Method: SPR analyses were carried out according to our previously published procedures, [23]. Briefly, SPR analyses were performed using a Biacore 3000 optical biosensor equipped with research−grade CM5 sensor chips (GE Healthcare). Using this platform, two separate recombinant Hsp90α surfaces, a BSA surface and one unmodified reference surface were prepared for simultaneous analyses. Proteins (100 µg mL^−1 in 10 mM CH3COONa, pH 5.0) were immobilized on individual sensor chip surfaces at a flow rate of 5 µL min^−1 using standard amine−coupling protocols to obtain densities of 8–12 kRU. Polyphenols, as well as 17-AAG and hardwickiic acid (HA), were dissolved in 100% DMSO to obtain 4 mM solutions, and diluted 1∶200 (v/v) in PBS (10 mM NaH2PO4, 150 mM NaCl, pH 7.4) to a final DMSO concentration of 0.5%. […] Binding experiments were performed at 25°C, using a flow rate of 50 µL min^−1, with 60 s monitoring of association and 300 s monitoring of dissociation. Simple interactions were suitably fitted to a single−site bimolecular interaction model (A+B = AB), yielding a single K D. Sensorgram elaborations were performed using the BIAevaluation software provided by GE Healthcare.
Putative interactions of different plant-derived phenolic compounds with Hsp90α were evaluated by a SPR-based approach.

recombinant Hsp90α [2] = target: T1, recombinant Hsp90α; assay: Limited proteolysis-mass spectrometry of Hsp90α/geraniin complex; conditions: trypsin or chymotrypsin, 5:1 molar excess of geraniin, 37°C
Method: Limited proteolysis experiments were performed on recombinant Hsp90α at 37°C, PBS 0.1% DMSO, using trypsin or chymotrypsin as proteolytic agents; 30 µL of a 3 µM Hsp90α solution were used for each experiment. Binary complex Hsp90α/geraniin was formed by incubating the protein with a 5∶1 molar excess of geraniin at 37°C for 15 min prior to proteolytic enzyme addition. Both Hsp90 and Hsp90/geraniin complex were digested using a 1∶100 (w/w) enzyme to substrate ratio. The extent of the reactions was monitored on a time−course basis by sampling the incubation mixture after 5, 15, and 30 min of digestion. Samples were analyzed by MALDITOF/MS using a MALDI micro MX (Waters). Mass data were elaborated using the Masslynx software (Waters). Preferential hydrolysis sites on Hsp90α under different conditions were identified on the basis of the fragments released during enzymatic digestion.
In an effort to identify the Hsp90α region involved in geraniin binding, a limited proteolysis−mass spectrometry−based strategy was used for the structural analysis of the Hsp90α/geraniin complex. This approach is based on the evidence that exposed, weakly structured, and flexible regions of a protein can be recognized by a proteolytic enzyme, [30]. […]

[3] = system: PHA-stimulated proliferating PBMC; assay: Hypodiploidy/necrosis by flow cytometry, PHA-stimulated PBMC; type: cell-based, human; conditions: untreated cells 1.5±0.8%
Method: Jurkat and HeLa (epithelial carcinoma) cells, obtained from Cell Bank in GMP-IST (Genova, Italy) were maintained in RPMI 1640 medium or Dulbecco’s modified Eagle medium (DMEM), respectively, supplemented with 10% (v/v) FBS, 2 mM L−glutamine and antibiotics (100 U mL^−1 penicillin, 100 µg mL^−1 streptomycin) purchased from Invitrogen (Carslbad, CA, USA), at 37°C in humidified atmosphere with 5% CO2. To ensure logarithmic growth, cells were subcultured every two days. As control cells, human peripheral blood mononuclear cells (PBMC) were isolated from buffy coats of healthy donors (kindly provided by the Blood Center of the Hospital of Battipaglia, Salerno, Italy) by using standard Ficoll−Hypaque gradients. Freshly isolated PBMC contained 92.8±3.1% live cells. Proliferation of PBMC was induced by phytohemagglutinin (PHA) (10 µg mL^−1). […]
Cell DNA content was measured by propidium iodide (PI) incorporation into permeabilized cells, as described by Nicoletti et al.. […] The percentage of cells in the sub G0/G1 phase, apoptotic fraction, was quantified using CellQuest software (Becton Dickinson). The distribution of cells in G0/G1, S, G2/M phases was determined using ModFit LT cell cycle analysis software (Becton Dickinson). Results were expressed as a mean ± SD of three experiments performed in triplicate.

O=C1O[C@H]2[C@@H]3OC(=O)c4cc(O)c(O)c(O)c4-c4c(cc(O)c(O)c4O)C(=O)OC[C@H]2O[C@@H](OC(=O)c2cc(O)c(O)c(O)c2)[C@@H]3OC(=O)c2cc(O)c(O)c3c2[C@@H]2C1=CC(=O)[C@](O)(O3)C2(O)O [Compound 54, geraniin]
Kd (recombinant Hsp90α [1]): 415 ± 27 nM
Hsp90α region involved in binding (recombinant Hsp90α [2]): overall protection of the N−terminal region from proteolysis
levels of hypodiploidy/necrosis [3]: 2.6±1.3%
